The text below walks through data of patent US9796711B2, “Substituted pyrazolo[3,4-b]pyridin-6-carboxylic acids and method of use” (AbbVie S.àr.l., priority 2015, dated 2017).

The target of test [1] is T1, ΔF508-CFTR (Homo sapiens, UniProt P13569, DEL508-508).
T1 construct: host or cells: CFBE41o-, doxycycline-inducible
Kind of test: CFTR cell surface levels using HRP-tagged ΔF508-CFTR expressing CFBE cells, intrinsic corrector capacity. Format: cell-based. To be noted: for EC50: read-out: EC50. In a few lines:
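Here the cells express ΔF508-CFTR with horseradish peroxidase inserted in extracellular loop 4, so only rescued channel at the surface gives luminescent signal. Compounds act on their own, 20 h at the reduced temperature of 33 °C; values are percent activity relative to DMSO and a 3 μM corrector.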

For test [2], the target named is T1, ΔF508-CFTR. The test can be described thus: CFTR cell surface levels using HRP-tagged ΔF508-CFTR expressing CFBE cells, in the presence of a co-corrector. Format: cell-based. The note with it: HRP-tagged ΔF508-CFTR expressing CFBE cells, in the presence of 3 μM co-corrector; for EC50: read-out: EC50. In a few lines:
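Cells were seeded with 0.5 μg/mL doxycycline and held 68 h at 37 °C. Test compounds plus 3 μM co-corrector (final 0.1% DMSO) were then added for 20 h at 33 °C. Washed cells received HRP substrate, and luminescence was normalized between DMSO and 3 μM co-corrector controls.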

The mark [3] stands for this setting: HRP-tagged ΔF508-CFTR CFBE41o- cells, compounds alone (intrinsic corrector capacity), 20 hours at 33° C., positive control 3 μM corrector.
Where [4] appears, read: HRP-tagged ΔF508-CFTR CFBE41o- cells, compounds alone (intrinsic corrector capacity), 20 hours at 33° C.
Setting [5] is: HRP-tagged ΔF508-CFTR expressing CFBE cells, intrinsic corrector capacity (no co-corrector), 33° C., 20 hours.

T1 sequence (P13569 with tags, fused parts or gaps DEL508-508): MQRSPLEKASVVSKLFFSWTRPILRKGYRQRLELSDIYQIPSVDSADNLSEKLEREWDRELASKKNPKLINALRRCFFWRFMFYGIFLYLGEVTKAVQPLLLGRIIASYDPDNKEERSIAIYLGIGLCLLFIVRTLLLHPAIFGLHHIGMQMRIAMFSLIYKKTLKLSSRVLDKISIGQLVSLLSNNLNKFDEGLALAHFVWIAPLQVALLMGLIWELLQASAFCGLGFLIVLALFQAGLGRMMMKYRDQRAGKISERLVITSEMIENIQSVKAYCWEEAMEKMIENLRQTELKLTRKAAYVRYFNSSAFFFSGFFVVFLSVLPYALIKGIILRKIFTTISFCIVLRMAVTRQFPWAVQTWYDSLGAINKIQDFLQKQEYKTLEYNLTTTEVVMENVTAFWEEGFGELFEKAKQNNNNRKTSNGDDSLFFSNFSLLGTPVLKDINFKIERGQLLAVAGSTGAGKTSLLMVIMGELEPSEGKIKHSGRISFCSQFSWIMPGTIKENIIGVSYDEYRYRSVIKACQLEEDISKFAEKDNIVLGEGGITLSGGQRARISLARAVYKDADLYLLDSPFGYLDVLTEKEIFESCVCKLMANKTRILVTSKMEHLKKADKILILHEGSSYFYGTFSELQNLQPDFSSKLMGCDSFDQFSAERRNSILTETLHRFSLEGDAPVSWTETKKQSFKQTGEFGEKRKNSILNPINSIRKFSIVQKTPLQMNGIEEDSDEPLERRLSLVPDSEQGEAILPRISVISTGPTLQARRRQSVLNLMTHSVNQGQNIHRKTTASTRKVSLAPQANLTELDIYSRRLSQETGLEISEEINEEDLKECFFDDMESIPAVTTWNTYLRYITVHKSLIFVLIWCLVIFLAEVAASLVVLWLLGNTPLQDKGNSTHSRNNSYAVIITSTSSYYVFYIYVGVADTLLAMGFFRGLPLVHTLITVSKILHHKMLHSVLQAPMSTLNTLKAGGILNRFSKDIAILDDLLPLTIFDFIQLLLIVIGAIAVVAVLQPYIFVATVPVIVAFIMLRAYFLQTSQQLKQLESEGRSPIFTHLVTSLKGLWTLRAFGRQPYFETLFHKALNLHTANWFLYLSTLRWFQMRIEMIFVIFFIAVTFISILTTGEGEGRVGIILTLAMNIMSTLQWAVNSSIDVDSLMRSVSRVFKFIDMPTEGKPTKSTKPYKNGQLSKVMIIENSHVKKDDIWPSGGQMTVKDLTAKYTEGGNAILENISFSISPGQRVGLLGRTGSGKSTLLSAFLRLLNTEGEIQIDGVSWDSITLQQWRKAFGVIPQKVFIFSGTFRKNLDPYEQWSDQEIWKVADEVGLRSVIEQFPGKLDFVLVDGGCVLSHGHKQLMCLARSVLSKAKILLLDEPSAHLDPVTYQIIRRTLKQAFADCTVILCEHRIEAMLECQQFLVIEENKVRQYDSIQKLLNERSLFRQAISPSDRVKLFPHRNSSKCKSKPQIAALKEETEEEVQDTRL

As for `Cc1nn(-c2ccccc2)c2nc(C(=O)O)cc(N3CC4(CCCC4)C3)c12` [compound 307, 4-(2-azaspiro[3.4]octan-2-yl)-3-methyl-1-phenyl-1H-pyrazolo[3,4-b]pyridine-6-carboxylic acid], the “% Activation” value at ΔF508-CFTR [1] (setting [3]) is reported as 77.423%; on ΔF508-CFTR [2], 233.4%. The figures for the EC50 at ΔF508-CFTR [1] (setting [4]) and on ΔF508-CFTR [2] were 1920 nM and 1540 nM, respectively.

For the compound `Cc1nn(-c2ccccc2)c2nc(C(=O)O)cc(N3CCN(S(C)(=O)=O)CC3)c12` [compound 146, 4-[4-(methanesulfonyl)piperazin-1-yl]-3-methyl-1-phenyl-1H-pyrazolo[3,4-b]pyridine-6-carboxylic acid], the “% Activation” value at ΔF508-CFTR [1] (setting [3]) amounted to 8.92%; on ΔF508-CFTR [2] it was 134.9%. Besides, the EC50 on ΔF508-CFTR [1] (setting [4]) and on ΔF508-CFTR [2] was greater than 10000 nM in each case.

For `Cc1nn(-c2ccccc2)c2nc(C(=O)O)cc(-c3ccc(N(C)C4CCC4)cc3)c12` [compound 115, 4-{4-[cyclobutyl(methyl)amino]phenyl}-3-methyl-1-phenyl-1H-pyrazolo[3,4-b]pyridine-6-carboxylic acid], the results for the “% Activation” value at ΔF508-CFTR [1] (setting [3]) and at ΔF508-CFTR [2] were 152.3% and 354%, respectively. In addition, the EC50 at ΔF508-CFTR [1] (setting [4]) is 1870 nM; at ΔF508-CFTR [2], 1280 nM.

With `COCC1CCN(c2cc(C(=O)O)nc3c2c(C(C)C)nn3-c2ccnc(N3CCOCC3)c2)CC1` [compound 525, 4-[4-(methoxymethyl)piperidin-1-yl]-1-[2-(morpholin-4-yl)pyridin-4-yl]-3-(propan-2-yl)-1H-pyrazolo[3,4-b]pyridine-6-carboxylic acid], on ΔF508-CFTR [1] (setting [5]), the “% Activation” value came out at 232.2% and the EC50 was determined as 416 nM. Moreover, on ΔF508-CFTR [2], the “% Activation” value is reported as 311.3% and the 50% effective concentration (EC50) came out at 936 nM.

With `O=C(O)c1cc(N2CCC(O)(CCO)CC2)c2c(C3CCC3)nn(-c3ccccc3)c2n1` [compound 546, 3-cyclobutyl-4-[4-hydroxy-4-(2-hydroxyethyl)piperidin-1-yl]-1-phenyl-1H-pyrazolo[3,4-b]pyridine-6-carboxylic acid], the “% Activation” value is listed as 87.52% on ΔF508-CFTR [1] (setting [5]) and 246.6% on ΔF508-CFTR [2]. The EC50 at ΔF508-CFTR [1] (setting [5]) and on ΔF508-CFTR [2] was 3330 nM throughout.

As for `CC(C)c1nn(-c2cccc(F)c2)c2nc(C(=O)O)cc(-c3ccc(N(C)C4CCOCC4)cc3)c12` [compound 284, 1-(3-fluorophenyl)-4-{4-[nethyl(oxan-4-yl)amino]phenyl}-3-(propan-2-yl)-1H-pyrazolo[3,4-b]pyridine-6-carboxylic acid], the “% Activation” value on ΔF508-CFTR [1] (setting [3]) is reported as 240.8%; at ΔF508-CFTR [2], 435.23%. Also, the EC50 at ΔF508-CFTR [1] (setting [4]) was found to be 501 nM; on ΔF508-CFTR [2] it was 282 nM.

For `O=C(O)c1cc(OC2CCCCCCC2)c2c(C3CCC3)nn(-c3ccccc3)c2n1` [compound 649, 3-cyclobutyl-4-(cyclooctyloxy)-1-phenyl-1H-pyrazolo[3,4-b]pyridine-6-carboxylic acid], at ΔF508-CFTR [1] (setting [5]), the “% Activation” value is on record as 107.6% and the EC50 came out at 432 nM. On ΔF508-CFTR [2], the “% Activation” value is reported as 314.65% and the EC50 is 225 nM.

As for `CC(C)c1nn(-c2cccc(C(F)(F)F)c2)c2nc(C(=O)O)cc(-c3ccc(N(C)C4CCOCC4)nc3)c12` [compound 287, 4-{6-[methyl(oxan-4-yl)amino]pyridin-3-yl}-3-(propan-2-yl)-1[3-(trifluoromethyl)phenyl]-1H-pyrazolo[3,4-b]pyridine-6-carboxylic acid], the “% Activation” value was 234.95% at ΔF508-CFTR [1] (setting [3]) and 464.35% on ΔF508-CFTR [2]. In addition, the EC50 on ΔF508-CFTR [1] (setting [4]) is 535 nM; at ΔF508-CFTR [2], 429 nM.

`CN(c1ccc(-c2cc(C(=O)O)nc3c2c(C2CCC2)nn3-c2ccccc2)cn1)C1CCOCC1` [compound 183, 3-cyclobutyl-4-{6-[methyl(oxan-4-yl)amino]pyridin-3-yl}-1-phenyl-1H-pyrazolo[3,4-b]pyridine-6-carboxylic acid]: the “% Activation” value is listed as 252.9% at ΔF508-CFTR [1] (setting [3]) and 469.58% at ΔF508-CFTR [2]. In addition, the EC50 came out at 528 nM at ΔF508-CFTR [1] (setting [4]) and 460 nM at ΔF508-CFTR [2].

Regarding `Cc1nn(-c2ccccc2)c2nc(C(=O)O)cc(N3CCN(C(=O)N4CCOCC4)CC3)c12` [compound 322, 3-methyl-4-[4-(morpholine-4-carbonyl)piperazin-1-yl]-1-phenyl-1H-pyrazolo[3,4-b]pyridine-6-carboxylic acid], the “% Activation” value at ΔF508-CFTR [1] (setting [3]) is recorded as 12.25%; on ΔF508-CFTR [2], 154.55%. In addition, the EC50 is greater than 10000 nM at ΔF508-CFTR [1] (setting [4]) and 3340 nM at ΔF508-CFTR [2].

Turning to `O=C(O)c1cc(OCC2CCCCC2)c2c(C3CCC3)nn(-c3ccccc3)c2n1` [compound 407, 3-cyclobutyl-4-(cyclohexylmethoxy)-1-phenyl-1H-pyrazolo[3,4-b]pyridine-6-carboxylic acid], at ΔF508-CFTR [1] (setting [5]), the “% Activation” value amounted to 125.25% and the EC50 stood at 925 nM. In addition, on ΔF508-CFTR [2], the “% Activation” value amounted to 323.95% and the EC50 stood at 662 nM.

In the case of `COCCOCC1(F)CCCN(c2cc(C(=O)O)nc3c2c(C2CCC2)nn3-c2ccccc2)C1` (stereo not shown) [compound 462, 3-cyclobutyl-4-{3-fluoro-3-[(2-methoxyethoxy)methyl]piperidin-1-yl}-1-phenyl-1H-pyrazolo[3,4-b]pyridine-6-carboxylic acid], the “% Activation” value at ΔF508-CFTR [1] (setting [5]) turned out to be 156.2%; at ΔF508-CFTR [2], 316.85%. The EC50 worked out at 486 nM on ΔF508-CFTR [1] (setting [5]) and 318 nM on ΔF508-CFTR [2].

Regarding `Cc1nn(-c2ccccc2)c2nc(C(=O)O)cc(N3CC4(CCOCC4)C3)c12` [compound 293, 3-methyl-4-(7-oxa-2-azaspiro[3.5]nonan-2-yl)-1-phenyl-1H-pyrazolo[3,4-b]pyridine-6-carboxylic acid], the “% Activation” value is reported as 90.275% on ΔF508-CFTR [1] (setting [3]) and 264.9% on ΔF508-CFTR [2]. The EC50 on ΔF508-CFTR [1] (setting [4]) and at ΔF508-CFTR [2] was 2510 nM throughout.

Regarding `CCN(CC)CCN1CCN(c2cc(C(=O)O)nc3c2c(C(C)C)nn3-c2ccc(F)cc2)CC1` [compound 800, 4-[4-[2-(diethylamino)ethyl]piperazin-1-yl}-1-(4-fluorophenyl)-3-(propan-2-yl)-1H-pyrazolo[3,4-b]pyridine-6-carboxylic acid], at ΔF508-CFTR [1] (setting [5]), the “% Activation” value was determined as 45.22% and the EC50 stood at 1670 nM. Besides, at ΔF508-CFTR [2], the “% Activation” value is listed as 214.8% and the EC50 was 1490 nM.

On to `COC1CN(c2cccc(-n3nc(C(C)C)c4c(-c5ccc(N6CCOCC6)cc5)cc(C(=O)O)nc43)c2)C1` [compound 164, 1-[3-(3-methoxyazetidin-1-yl)phenyl]-4-[4-(morpholin-4-yl)phenyl]-3-(propan-2-yl)-1H-pyrazolo[3,4-b]pyridine-6-carboxylic acid], for which the results for the “% Activation” value at ΔF508-CFTR [1] (setting [3]) and on ΔF508-CFTR [2] were 359.9% and 608.5%, respectively. In addition, the EC50 is 675 nM on ΔF508-CFTR [1] (setting [4]) and 375 nM at ΔF508-CFTR [2].

Take `O=C(O)c1cc(N2CCCCCC2)c2c(C3CCC3)nn(-c3ccccc3)c2n1` [compound 473, 4-(azepan-1-yl)-3-cyclobutyl-1-phenyl-1H-pyrazolo[3,4-b]pyridine-6-carboxylic acid]: at ΔF508-CFTR [1] (setting [5]), the “% Activation” value was found to be 102.9% and the EC50 stood at 1020 nM. Also, at ΔF508-CFTR [2], the “% Activation” value was 280.9% and the EC50 stood at 545 nM.
